For 87 molecules, XC50 results are on record in ChEMBL document CHEMBL1157539, “Thousands of chemical starting points for antimalarial lead identification” (Nature, 2010).

In the test the test system is Plasmodium falciparum. Description: GSK_TCMDC: Inhibition of Plasmodium falciparum 3D7 in whole erythrocytes, using parasite LDH activity as an index of growth. Type of test: functional, organism-based. The following applies: Plasmodium falciparum, 3D7.
In turn, `CCOc1ccc2c(N/N=C/c3cccc([N+](=O)[O-])c3)cc(C)nc2c1` came in with an XC50 of 224 nM. `COc1cc(Cc2cnc(N)nc2N)cc(OCCCC(=O)O)c1OC` came in with an XC50 of 1180 nM.

Regarding `CCC(CC)CN1C(=O)C(c2ccccc2)(c2ccccc2)N=C1N`, the XC50 was 970 nM.

The molecule `Cc1nn(CC(C)C)c2sc(C(=O)N3CCN(S(=O)(=O)c4ccc(C#N)cc4)CC3)cc12` returned an XC50 of 739 nM. In turn, `Cn1nc(-c2ccc(CN[C@@H]3CCc4ccc(O)cc43)cc2)c2cnc(NC3CCCC3)nc21` registered an XC50 of 1120 nM. Next, `COc1ccc2ncc(C)c(CCN3CCC(NCc4ccc5c(n4)NC(=O)CS5)CC3)c2c1`: 546 nM; `CC1(C)NC(N)=NC(=N)N1OCCCCOc1ccccc1`: 3.2 nM; `NC(=O)c1cnc2cc(-c3ccncc3)cc(Nc3ccc(NC(=O)C4CCCCC4)cc3)c2c1`: 232 nM. Consider `OC(CNC1CCCCCC1)c1ccc(Cl)c(Cl)c1` (configuration not stated), for which the XC50 was 688 nM. Next, `NC1=NC(c2ccccc2)N(OCc2ccccc2)C(N)=N1` (configuration not stated): 43.1 nM; `Cc1ccc(O)cc1Nc1ccnc2ccc(-c3cccc(CNCCN(C)C)c3)cc12`: 612 nM.

`Cc1cccc2nc(-c3ccc(-c4cccc(NC(=O)Nc5ccc(Cl)cc5)c4)s3)[nH]c12` came in with an XC50 of 517 nM.

In turn, `COc1ccc(O)c(-c2sc(N=C(N)N)nc2-c2ccccc2)c1` had an XC50 of 372 nM. As for `c1cncc(CCNCc2cccc(-c3csc(-c4nc5ccccc5[nH]4)c3)c2)c1`, the figure is 704 nM; as for `Cc1ccc(CON2C(=N)N=C(N)NC2(C)C)cc1C`, 3.2 nM; as for `COc1cccc(NC(=O)[C@H](C(C)C)n2c(=O)[nH]c3ccccc3c2=O)c1`, 266 nM. Next, `COc1ccc(Cc2c(N)nc3nc(N)nc(N)c3c2C)cc1`: 189 nM; `COC(=O)C(Cc1ccccc1)C(CSCc1ccc(OC)cc1)C(=O)N[C@@H](C(=O)OC(C)(C)C)c1ccc(C(C)(C)C)cc1` (some centres not stated): 1030 nM; `O=C(Nc1ccccc1)N(Cc1cccc(-c2ccc(CNCCc3ccccc3)cc2)c1)C1CCN(Cc2ccccc2)CC1`: 349 nM. The molecule `Cc1ccc2[nH]c(C)cc(=NN=CC=Cc3ccccc3)c2c1` returned an XC50 of 840 nM. As for `CC1CN(c2ccc(NC(=O)c3ccc(F)cc3)cc2)CCN1Cc1cccc(F)c1` (configuration not stated), the figure is 1350 nM; as for `Oc1ccc(CCNc2nc(NCCCOc3ccccc3-c3cccnc3)nc(N3CCNCC3)n2)cc1`, 1040 nM.

For the molecule `COc1ccc2[nH]c(C)cc(=NN=Cc3ccncc3)c2c1`, the XC50 was found to be 697 nM. Next, `N=C(N)CCN(Cc1ccc(Cl)cc1)c1ccc(Cl)cc1`: 1060 nM; `COc1ccc(-c2ccc(NC(=O)c3ccc(C#N)cc3)cc2)cc1CN(C)CCN(C)C`: 663 nM; `OCC1CCN(Cc2ccc(-c3ccc(-c4nc5cc(C(F)(F)F)ccc5[nH]4)cc3)cc2)CC1`: 697 nM. Next, `OCCN1CCN(Cc2ccc(-c3cccc(-c4nc5cc(C(F)(F)F)ccc5[nH]4)c3)cc2)CC1`: 642 nM; `Cc1ccc(C(=O)NC2CCN(CCNC(=O)Nc3cc(C)nc4ccccc34)CC2)cc1`: 490 nM; `Cc1sc2ncnc(Sc3nc4ccccc4[nH]3)c2c1C`: 255 nM.

Turning to `COc1ccc2c(c1C1CCN(CCCCNC(=O)c3ccc(NC(=O)c4ccc(Cl)cc4)cc3)CC1)CCCC2`, the XC50 amounted to 341 nM. As for `Cc1cccc2nc(-c3ccc(-c4ccc(CNCc5ccc(CN)cc5)cc4)cc3)[nH]c12`, the figure is 721 nM; as for `Cc1nc(N)nc(N)c1OCCCOc1ccccc1Br`, 4.1 nM; as for `COc1c(C2CCN(CCCCNC(=O)C=Cc3cc4cc(Cl)ccc4o3)CC2)ccc2c1CCCC2`, 1310 nM. On to `CCCCCCNC(=N)c1ccc(OCCCCCOc2ccc(C(=N)NCCCCCC)cc2)cc1`, for which the XC50 worked out at 309 nM. Regarding `COc1cccc(-c2cc(C(F)(F)F)n3ncc(C(=O)Nc4cc(C)ccc4O)c3n2)c1`, the XC50 came to 159 nM. `N[C@@H](CCNCc1ccc(-c2cccnc2)cc1)Cc1ccc(F)c(F)c1` had an XC50 of 797 nM. As for `O=C(/C=C/c1ccc(Cl)c(Cl)c1)NCCCCCCN1CCCN(C(=O)Nc2ccc(Cl)c(C(F)(F)F)c2)CC1`, the XC50 worked out at 565 nM. Next, `CCOc1cc(C(=O)NCC2CCN(CC3CCCCC3)CC2)ccc1-c1nc2cc(Cl)ccc2[nH]1`: 563 nM. Next, `Cc1cc(N[C@@H](CC(C)C)C(=O)NCCOc2ccccc2)nc(NCCOc2ccccc2)n1`: 1490 nM; `COc1ccc(-c2ccc(NC(=O)c3cccc(C#N)c3)cc2)cc1CN1CCC(O)CC1`: 821 nM. Next, `CCCCN1C(=N)NC(c2ccccc2)(c2ccccc2)C1=O`: 1030 nM; `CC[C@H](C)CNC(=O)c1cncc(-c2ccc(CNCCCc3ccccc3)cc2)c1`: 735 nM. As for `CC(C)COc1ccc(Cl)cc1Cc1nc(-c2nc3ccc(CN4CCN(C)CC4)cc3[nH]2)co1`, the XC50 amounted to 912 nM.

In turn, `CC1(C)CC(NC(=O)NC2CCN(Cc3ccccc3)CC2)CC(C)(CNC(=O)NC2CCN(Cc3ccccc3)CC2)C1` (configuration not stated) displayed an XC50 of 946 nM. As for `CCCc1cccc(C)c1OCCCON1C(=N)N=C(N)NC1(C)C`, the figure is 3.2 nM.

Molecule `Cc1cc(C)c(C)c(S(=O)(=O)N2CCCCC(c3ccc(F)c(F)c3)=N2)c1C` displayed an XC50 of 706 nM. Next, `O=C(NC1CCN(Cc2ccccc2)CC1)c1cc(C(=O)NC2CCN(Cc3ccccc3)CC2)cc(C(=O)NC2CCN(Cc3ccccc3)CC2)c1`: 1040 nM. Next, `O=C(NC1CCC(CN2CCC(c3c[nH]c4ccccc34)CC2)CC1)c1ccc(-c2ccccc2[N+](=O)[O-])o1` (configuration not stated): 772 nM; `COc1cc(Nc2nccc(N3CCC(NC(=O)Nc4ccc5c(c4)OCO5)C3)n2)cc(OC)c1OC` (configuration not stated): 761 nM. Next, `CC(C)(C)c1ccc(C(=O)N2CCC3(CC2)C(=O)N(CC(=O)NCC2CCCO2)CN3c2ccccc2)cc1` (configuration not stated): 231 nM. Take `COc1ccc(CCn2c(=N)c(C(=O)NCc3ccccc3)cc3c(=O)n4ccccc4nc32)cc1`: the XC50 is 751 nM. Next, `COc1ccccc1NC(=O)Nc1cccc(-c2ccc(-c3nc4cc(C(F)(F)F)ccc4[nH]3)cc2)c1`: 306 nM; `O=C(CN(c1cccc(C(F)(F)F)c1)S(=O)(=O)c1ccc(Cl)cc1)NCCC(c1ccccc1)c1ccccc1`: 743 nM.

Regarding `c1cc2[nH]c(CCCCc3nc4cc(C5=N[C@H]6CCCC[C@H]6N5)ccc4[nH]3)nc2cc1C1=N[C@H]2CCCC[C@H]2N1`, the XC50 worked out at 415 nM. On to `CCn1c(Sc2ccc(C#N)c([N+](=O)[O-])c2)nnc1-c1ccc(OC)cc1`, for which the XC50 worked out at 805 nM. For `COc1ccc(NC(=O)[C@H](CC(C)C)Nc2ccnc(Nc3ccccc3)n2)cc1`, the XC50 amounted to 1570 nM. For `COc1ccccc1CN1CCC(NC(=O)c2ccc(-c3cccc(C(F)(F)F)c3)s2)CC1`, the XC50 was 1310 nM.

For `Cc1cc(C)c(S(=O)(=O)N2CCCCC(c3cccc(C(F)(F)F)c3)=N2)c(C)c1`, the XC50 turned out to be 456 nM. As for `Cc1cc(=NN=Cc2cccc(F)c2)c2ccc(F)cc2[nH]1`, the figure is 229 nM; as for `COc1cc2nc(NCCc3ccccc3)nc(NCc3ccc(C#N)cc3)c2cc1OC`, 145 nM; as for `O=C(Nc1ccc(-c2cccc(-c3nc4cc(F)ccc4[nH]3)c2)cc1)Nc1ccc(F)c(F)c1F`, 739 nM.

The molecule `COc1cc(-c2[nH]c(-c3ccc(OCCN(C)C)cc3)cc2-c2ccncc2)ccc1Cl` yielded an XC50 of 1790 nM.

Take `COc1ccc(OCCCN2CCCCC2)cc1S(=O)(=O)c1ccc(OCc2ccc(C(F)(F)F)cc2)cc1`: the XC50 is 1010 nM.

The molecule `CN1CCc2cc(Br)c(O)cc2C1Cc1ccccc1Cl` (configuration not stated) had an XC50 of 667 nM. As for `COc1ccc(C(=O)Nc2cc(Br)c3c(c2)CNCC3)cc1C(F)(F)F`, the figure is 1070 nM; as for `OC1(c2ccccc2)c2cc(Cl)ccc2OC1c1nc2c(Cl)ccc(Cl)c2o1` (configuration not stated), 301 nM; as for `O=C(Cc1ccccc1)NC(c1ccccc1)c1ccc2cccnc2c1O` (configuration not stated), 952 nM. As for `Nc1nc(Cc2ccc(Cl)cc2)nc(Cc2ccc(Cl)cc2)n1`, the figure is 929 nM; as for `Cc1ccc(Oc2ccccc2NC(=O)CCc2nc3ccccc3c(=O)[nH]2)cc1`, 827 nM. Next, `CN(Cc1c(Cl)cnn1C)S(=O)(=O)c1ccc2ccccc2c1`: 1040 nM; `CCOc1ccc(OCC(=O)Nc2nc(-c3ccc(OC)cc3)c(C)s2)cc1`: 220 nM. The molecule `COc1ccc(CNCc2ccc(-c3ccc(-c4nc5cccc(C)c5[nH]4)cc3)cc2)cc1` showed an XC50 of 341 nM. For `OCCN1CCN(Cc2cccc(-c3ccc(-c4nc5cc(C(F)(F)F)ccc5[nH]4)cc3)c2)CC1`, the XC50 turned out to be 559 nM. Turning to `C(=N\Nc1nccc2sc(-c3ccccc3)cc12)/c1cccnc1`, the XC50 amounted to 821 nM. Next, `O=C(/C=C/c1ccc(Cl)c(Cl)c1)NCCCCN1CCCN(C(=O)Nc2cc(Cl)cc(Cl)c2)CC1`: 949 nM; `Cc1cccc2nc(-c3ccc(-c4cccc(NC(=O)COc5ccccc5C(N)=O)c4)s3)[nH]c12`: 734 nM. `Cc1cc(Cl)c(S(=O)(=O)N(C)c2ccccc2)cc1OCC(=O)NC1CCCCC1`: the XC50 worked out at 296 nM. Next, `CC(C)(C)c1nn(-c2ccc(Cl)cc2)c2[nH]c(=O)c(CNC3CCCC3)cc12`: 234 nM; `CCOc1ccc(C2CCN(CCCCNC(=O)c3ccc(NC(=O)c4ccc(Cl)cc4)cc3)CC2)c(OCC)c1`: 677 nM; `CC(C)N1CCN(C(=O)c2ccc(CNCCCN3CCN(c4cccc(Cl)c4Cl)CC3)o2)CC1`: 737 nM. Consider `Cc1ccc2[nH]c3c(NCCCN4CCOCC4)ncnc3c2c1`, for which the XC50 was 942 nM. As for `CN1CCCN(Cc2ccc(-c3ccc(NC(=O)c4ccc(Cl)cc4)cc3)cc2)CC1`, the figure is 895 nM; as for `O=C(/C=C/c1ccc(F)cc1)NC1CCC(CCN2CCc3ccc(-n4cccn4)cc3CC2)CC1` (configuration not stated), 1440 nM; as for `CC(Oc1cccc(Cl)c1)C(=O)N1CCc2ccccc21` (configuration not stated), 512 nM. Next, `CC(C)C[C@H](NC(=O)c1cc2cc(OCCN3CCNCC3)ccc2o1)C(=O)NC1CC[C@@H](C)N(C(=O)Nc2ccc(Cl)cc2)CC1=O` (some centres not stated): 382 nM; `Fc1ccc2[nH]c(-c3cccc(-c4cccc(CNCCc5ccncc5)c4)c3)nc2c1`: 170 nM; `Cc1ccc(C)c(NC(=O)Nc2ccc(C)c(-c3ccc(C(=O)Nc4ccncc4)cc3)c2)c1`: 618 nM.
